In PMC4187893, “Biochemical and Antiparasitic Properties of Inhibitors of the Plasmodium falciparum Calcium-Dependent Protein Kinase PfCDPK1” (Antimicrobial Agents and Chemotherapy, 2014):

Key:
PvCDPK1 = PvCDPK1 (Plasmodium vivax, UniProt A5KBU9); assay: Rh-ParM ADP sensor IC50 assay, PvCDPK1; conditions: read-out: IC50 PvCDPK1; Rh-ParM, absence of MTIP; mean (SD), n = 3
P. falciparum 3D7 = assay: FACS assay for parasite growth; conditions: read-out: Parasite growth inhibition EC50; FACS; mean (SD), n = 3
P. berghei = tested on: P. berghei; set-up: method as in PMID 24689770; conditions: mice, 50 mg/kg po, groups of three mice; mean (SD); cited from earlier work
[1] = set-up: method as in PMID 24689770; conditions: cited from earlier work
PfCDPK1 = PfCDPK1 (Plasmodium falciparum, UniProt P62344); assay: Thermal shift assay; format: binding; set-up: 50 nM full-length recombinant PfCDPK1 and 8 μM MTIP in assay buffer 1; GST (from vector pGEX6P1) (N, cleaved yes); made in house; host or cells: Escherichia coli BL21 Gold; conditions: 10 μM compound, relative to DMSO controls
Sequence of PfCDPK1 (P62344 whole entry): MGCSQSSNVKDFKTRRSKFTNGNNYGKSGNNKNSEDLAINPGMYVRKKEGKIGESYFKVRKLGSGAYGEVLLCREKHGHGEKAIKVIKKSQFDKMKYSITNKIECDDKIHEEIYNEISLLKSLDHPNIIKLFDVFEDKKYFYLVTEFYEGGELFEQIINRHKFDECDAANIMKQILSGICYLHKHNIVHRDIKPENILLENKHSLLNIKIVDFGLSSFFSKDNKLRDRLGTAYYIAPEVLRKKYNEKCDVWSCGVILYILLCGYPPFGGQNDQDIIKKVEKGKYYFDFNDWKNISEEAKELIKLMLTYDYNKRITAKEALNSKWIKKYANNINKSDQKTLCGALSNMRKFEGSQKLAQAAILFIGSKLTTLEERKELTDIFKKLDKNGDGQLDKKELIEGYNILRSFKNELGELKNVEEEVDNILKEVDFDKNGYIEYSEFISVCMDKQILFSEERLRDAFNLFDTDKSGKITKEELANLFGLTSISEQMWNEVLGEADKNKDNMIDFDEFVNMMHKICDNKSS
Protocol: Purified recombinant PfCDPK1 was diluted to 1 μM in 10 mM HEPES buffer (pH 7.5) containing 150 mM NaCl, 1 mM Ca^2+, and 1/1,000 SYPRO orange dye (Invitrogen). Test compounds were prediluted to 400 μM in 40% (vol/vol) DMSO in water, and 1 μl of diluted compound was added to 39 μl of enzyme/dye mix in white 96-well quantitative PCR plates (Thermo Scientific) to give a final compound concentration of 10 μM. Reference thermal melting temperatures (Tms) were obtained in parallel by the addition of 1 μl of 40% (vol/vol) DMSO to 39 μl of diluted PfCDPK1. The plates were sealed with transparent adhesive covers (Bio-Rad) and subjected to a temperature gradient from […] at a rate of 1 K/min using a quantitative PCR machine (MX3005P; Stratagene). Fluorescence data were acquired at 1-min intervals using the 6-carboxyfluorescein (FAM)/5-carboxy-X-rhodamine (ROX) filter set (λex = 492 nm; λem = 610 nm), and the raw data were exported to Excel (Microsoft) for analysis. Data were processed to identify the fluorescence maxima and minima, and the midpoints of melting curves were determined by fitting to the Boltzmann equation using XL-fit software (IDBS). Results were expressed as ΔTm values relative to DMSO controls where ΔTm = Tm in the presence of inhibitor − Tm of the DMSO controls.

[2] = set-up: method as in PMID 24689770; conditions: cited from earlier work; remark: listed apart in the source
PbCDPK1 = PbCDPK1 (Plasmodium berghei, UniProt A0A509AHB6); assay: Rh-ParM ADP sensor IC50 assay, PbCDPK1; conditions: read-out: IC50 PbCDPK1; Rh-ParM, absence of MTIP; mean (SD), n = 3
Sequence of PbCDPK1 (A0A509AHB6 whole entry): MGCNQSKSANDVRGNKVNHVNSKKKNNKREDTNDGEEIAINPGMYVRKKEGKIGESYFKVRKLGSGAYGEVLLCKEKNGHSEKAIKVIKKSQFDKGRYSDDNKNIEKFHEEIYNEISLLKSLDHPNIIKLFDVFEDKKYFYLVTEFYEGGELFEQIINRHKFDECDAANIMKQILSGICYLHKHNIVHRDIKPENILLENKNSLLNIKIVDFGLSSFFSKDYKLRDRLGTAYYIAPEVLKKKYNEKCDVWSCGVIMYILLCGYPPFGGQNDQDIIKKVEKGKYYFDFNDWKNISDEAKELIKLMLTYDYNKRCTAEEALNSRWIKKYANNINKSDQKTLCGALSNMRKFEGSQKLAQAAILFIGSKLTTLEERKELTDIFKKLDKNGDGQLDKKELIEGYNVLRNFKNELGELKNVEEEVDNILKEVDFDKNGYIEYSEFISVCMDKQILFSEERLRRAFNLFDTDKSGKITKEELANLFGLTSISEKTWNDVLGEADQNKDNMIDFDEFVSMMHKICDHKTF

Sequence of PvCDPK1 (A5KBU9 entry or part of it): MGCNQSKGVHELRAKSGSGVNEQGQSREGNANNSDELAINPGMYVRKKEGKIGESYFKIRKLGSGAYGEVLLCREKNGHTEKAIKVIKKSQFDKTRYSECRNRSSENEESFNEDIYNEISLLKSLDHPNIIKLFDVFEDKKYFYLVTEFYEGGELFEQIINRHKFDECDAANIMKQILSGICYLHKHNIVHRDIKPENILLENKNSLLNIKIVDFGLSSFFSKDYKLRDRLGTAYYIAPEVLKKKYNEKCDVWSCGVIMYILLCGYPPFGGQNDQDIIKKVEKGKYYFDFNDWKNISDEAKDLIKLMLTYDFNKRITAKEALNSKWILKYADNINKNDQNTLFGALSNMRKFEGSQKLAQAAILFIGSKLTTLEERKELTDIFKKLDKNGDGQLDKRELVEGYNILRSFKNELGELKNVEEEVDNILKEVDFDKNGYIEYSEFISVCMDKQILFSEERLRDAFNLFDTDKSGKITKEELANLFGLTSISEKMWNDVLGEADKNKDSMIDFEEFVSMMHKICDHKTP

SMILES | IC50 (PvCDPK1) | EC50 (P. falciparum 3D7) | % reduction in parasitemia in vivo (po) (P. berghei) | mlogD [1] | ΔTm PfCDPK1 (PfCDPK1) | PAMPA Papp [2] | IC50 (PbCDPK1)
CC(C)CCNc1ccc(-c2cnc3ccc(NC4CCN(C)CC4)nn23)cn1 [Compound 1] | < 10 nM | 439 nM | 46 (4) % | 3.4 | – | – | –
Cc1ccc(F)c(Nc2ccc(-c3cnc4ccc(NC5CCC(N)CC5)nn34)cc2)n1 (stereo not drawn) [Compound 7] | < 10 nM | – | – | 2.2 | 23 K | 1.8 ×10⁻⁶ cm/s | < 10 nM
